Earlier results in article PMC3902791 (Molecular imaging and biology : MIB : the official …, 2012).
Where two headings read alike, the source gives them in different places.

Columns and labels:
[1] = test system: dog; conditions: cited from earlier work
[2] = test system: monkey; conditions: intravenous injection; cited from earlier work
[3] = humans; cited from earlier work

Structure (SMILES)	LD50 ([1]; intravenously) [mg/kg]	LD50 ([1]; orally) [mg/kg]	LD50 [2] [mg/kg]	effective dose [3] [mSv/MBq]	radiation absorbed dose, intestines [3]	radiation absorbed dose, kidneys [3] [mGy/MBq]	radiation absorbed dose, liver [3] [mGy/MBq]	radiation absorbed dose, pancreas [3] [mGy/MBq]	radiation absorbed dose, urinary bladder [3] [mGy/MBq]
O=C([O-])CF.[Na+] [sodium fluoroacetate]	0.06	0.066	5	–	–	–	–	–	–
C[11C](=O)O [^11C-ACE, ^11C-labeled acetate]	–	–	–	0.0049	0.01–0.011 mGy/MBq	0.0093	0.006	0.017	0.0028
